According to US12568967B2, “Compositions comprising pyridine carboxylate herbicides with synthetic auxin herbicides or auxin transport inhibitors” (priority 2018, dated 2026):
Where “and” joins values, the source holds several entries; their conditions need not be identical. Equal entries are not always repeated. Where two headings read alike, the source gives them in different places.

Columns and labels:
Assay type in all cases: in vivo
[1] = system: Brassica napus (winter rape, BRSNW); assay: Greenhouse postemergence trial BRSNW; conditions: for plant injury at 10 g/ha / plant injury at 15 g/ha: Brassica napus, post-emergence
[2] = system: Cirsium arvense (Canadian thistle, CIRAR); assay: Greenhouse postemergence trial CIRAR
[3] = system: Sinapis arvensis (wild mustard, SINAR); assay: Greenhouse postemergence trial SINAR
[4] = system: Salsola kali (Russian thistle, SASKR); assay: Greenhouse postemergence trial SASKR;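 also: greenhouse plants sprayed at second or third true leaf stage, injury rated by eye after 20-22 d against solvent-blank controls, 0 meaning no injury, 100 complete kill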
[5] = system: Chenopodium album L. (common lambsquarters, CHEAL); assay: Greenhouse postemergence trial CHEAL;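 also: greenhouse plants sprayed at second to third true leaf stage, injury rated by eye after 20-22 d versus solvent-blank sprayed controls, 0 = no injury, 100 = complete kill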
[6] = system: Veronica hederifolia (ivyleaf speedwell, VERHE); assay: Greenhouse postemergence trial VERHE; conditions: VERHE; for % visual injury, Obs: applied alone
[7] = system: Veronica persica (bird's-eye speedwell, VERPE); assay: Greenhouse postemergence trial VERPE; conditions: for % visual injury Obs / visual injury, Obs / % visual injury, Obs: VERPE; for % visual injury, Obs: applied alone
Protocol: (§1) Seeds of the desired test plant species were planted in a 90:10% v/v (volume/volume) mixture of PRO-MIX® BX (Premier Tech Horticulture, Quakertown, PA, USA) and PROFILE® GREENS GRADE™ (Profile Products LLC, Buffalo Grove, IL, USA) planting mixture, which typically has a pH of 5.2 to 6.2 and an organic matter content of at least 50 percent, in plastic pots with a surface area of 103.2 square centimeters (cm^2). […] The plants were grown for 7-36 days (d) in a greenhouse with an approximate 14-hour (h) photo-period which was maintained at about 23° C. during the day and 22° C. during the night. Nutrients and water were added on a regular basis and supplemental lighting was provided with overhead metal halide 1000-Watt lamps as necessary. The plants were employed for testing when they reached the second or third true leaf stage.
(§2) Emulsifiable concentrates of each of each pyridine carboxylate herbicide (Compound A or Compound B) were prepared at 100 grams acid equivalent per liter (g ae/L). The emulsifiable concentrates also included a safener, cloquintocet-mexyl, at 120 grams active ingredient per liter (g ai/L), unless otherwise noted below. An aliquot of each emulsifiable concentrate was placed in a 25 mL glass vial and diluted with an aqueous mixture of 1.25% (v/v) ACTIROB® B esterified rapeseed oil (Bayer Crop Science, Research Triangle Park, NC, USA) or MSO® Concentrate with LECI-TECH® methylated soybean oil (Loveland Products, Loveland, CO, USA) to obtain concentrated stock solutions at the highest application rate for each herbicide, based upon a 12 milliliter (mL) application volume at a rate of 187 liters per hectare (L/ha). The concentrated stock solutions were further diluted with an aqueous mixture of 1.25% v/v ACTIROB® B or MSO® Concentrate with LECI-TECH® to obtain stock solutions at reduced application rates for each herbicide. Spray solutions of the herbicide combinations (Compound A or Compound B plus synthetic auxin herbicide or auxin transport inhibitor) were prepared by adding weighed amounts or aliquots of the synthetic auxin herbicide or auxin transport inhibitor to the stock solutions of Compound A or Compound B to form 12-mL spray solutions in two-way combinations.
(§3) The spray solutions were applied to the plant material with an overhead Mandel track sprayer equipped with 8002E nozzles calibrated to deliver 187 L/ha over an application area of 0.503 square meters (m^2) at a spray height of 18 inches (43 centimeters (cm)) above the average plant canopy. Control plants were sprayed in the same manner with the solvent blank. All pyridine carboxylate herbicide (component a) application rates are given as “g ae/ha” and all synthetic auxin herbicide or auxin transport inhibitor (component b) application rates are given as “g ai/ha.”
(§4) The treated plants and control plants were placed in a greenhouse as described above and watered by sub-irrigation to prevent wash-off of the test compounds. After 20-22 d, the condition of the test plants as compared with that of the control plants was determined visually and scored on a scale of 0 to 100 percent where 0 corresponds to no injury and 100 corresponds to complete kill.

[8] = system: Anthemis arvensis (field chamomile, ANTAR); assay: Greenhouse postemergence trial ANTAR; conditions: ANTAR; for % visual injury Obs: alone; for % visual injury, Obs: applied alone
[9] = system: Triticum aestivum (winter wheat, TRZAW); assay: Greenhouse postemergence crop phytotoxicity TRZAW; conditions: for % visual injury Obs / visual injury, Obs / % visual injury, Obs: TRZAW; for % visual injury, Obs: applied alone; for % visual injury (crop phytotoxicity): c1-3 Compound A 7.5/10/15
[10] = system: Brassica napus (spring rape, BRSNN); assay: Greenhouse postemergence trial BRSNN
[11] = system: Rumex obtusifolius (broad-leaf dock, RUMOB); assay: Greenhouse postemergence trial RUMOB; conditions: Compound A 10 g/ha
Protocol: as §1, §2, §3, §4

[12] = system: Helianthus annuus (common sunflower, HELAN); assay: Greenhouse postemergence trial HELAN; conditions: Compound A 10 g/ha
Protocol: as §1, §2, §3, §4

[13] = system: Echinochloa crus-galli (barnyard grass, ECHCG); assay: Greenhouse postemergence trial ECHCG; conditions: Compound A 10 g/ha
Protocol: as §1, §2, §3, §4

[14] = system: Digitaria sanguinalis (large crabgrass, DIGSA); assay: Greenhouse postemergence trial DIGSA; conditions: Compound A 10 g/ha
Protocol: as §1, §2, §3, §4

[15] = system: Setaria faberi (giant foxtail, SETFA); assay: Greenhouse postemergence trial SETFA; conditions: Compound A 10 g/ha
Protocol: as §1, §2, §3, §4

[16] = system: Oryza sativa (common rice, ORYSA); assay: Greenhouse postemergence trial ORYSA; conditions: Compound A 10 g/ha
Protocol: as §1
Emulsifiable concentrates of each of each pyridine carboxylate herbicide (Compound A or Compound B) were prepared at 100 grams acid equivalent per liter (g ae/L). […]
as §4

[17] = Compound A 10 g/ha, without safener

N#CCOC(=O)c1nc(-c2ccc3cc[nH]c3c2F)c(F)c(N)c1Cl [Compound A, cyanomethyl 4-amino-3-chloro-5-fluoro-6-(7-fluoro-1H-indol-6-yl)pyridine-2-carboxylate]
visual injury, Obs ([1]; BRSNW, Compound A 10 g/ha alone): 65%
visual injury, Obs ([1]; BRSNW, Compound A 15 g/ha alone): 80%
% visual injury (Obs) ([1]; BRSNW, alone 10 g/ha): 68%
plant injury at 10 g/ha ([1]; BRSNW, Compound A 10 g/ha, read-out: % visual injury Obs): 65%
plant injury at 10 g/ha ([1]; BRSNW, Compound A 10 g/ha, read-out: % visual injury, Obs): 68%
plant injury at 15 g/ha ([1]; BRSNW, Compound A 15 g/ha, read-out: % visual injury Obs): 80%
plant injury at 10 g/ha ([1]; BRSNW, alone, 10 g/ha, read-out: % visual injury Obs): 65%
plant injury at 15 g/ha ([1]; BRSNW, alone, 15 g/ha, read-out: % visual injury Obs): 80%
plant injury at 15 g/ha ([1]; BRSNW, applied alone, 15 g/ha, read-out: % visual injury, Obs): 80%
BRSNW Obs (% visual injury) [1, 17]: 65%
% visual injury, Obs ([2]; CIRAR, Compound A 10 g/ha): 20% and 30% and 28%
visual injury, Obs ([2]; CIRAR, Compound A 10 g/ha alone): 50%
visual injury, Obs ([2]; CIRAR, Compound A 15 g/ha alone): 60%
% visual injury (Obs) ([2]; CIRAR, alone 10 g/ha): 23% and 30%
% visual injury Obs ([2]; CIRAR, alone 10 g/ha): 50%
% visual injury Obs ([2]; CIRAR, alone, 15 g/ha): 60%
% visual injury, Obs ([2]; CIRAR, applied alone, 10 g/ha): 50% and 55%
% visual injury, Obs ([2]; CIRAR, applied alone, 15 g/ha): 60%
pest or weed control at […] ([2]; Cirsium arvense, post-emergence, CIRAR, Compound A 7.5 g/ha, read-out: % visual injury Obs): 30%
pest or weed control at 10 g/ha ([2]; Cirsium arvense, post-emergence, CIRAR, Compound A 10 g/ha, read-out: % visual injury Obs): 50%
pest or weed control at 15 g/ha ([2]; Cirsium arvense, post-emergence, CIRAR, Compound A 15 g/ha, read-out: % visual injury Obs): 60%
CIRAR Obs (% visual injury) ([2]; Compound A 10 g/ha): 20% and 23%
CIRAR % visual injury Obs ([2]; Compound A 10 g/ha (Table 42)): 20%
CIRAR % visual injury Obs ([2]; Compound A 10 g/ha (Table 43)): 20%
CIRAR % visual injury Obs ([2]; Compound A 10 g/ha (Table 44)): 20%
CIRAR Obs (% visual injury) [2, 17]: 28%
SINAR Obs (% visual injury) ([3]; Compound A 10 g/ha): 100% and 90%
SINAR % visual injury Obs ([3]; Compound A 10 g/ha (Table 42)): 100%
SINAR % visual injury Obs ([3]; Compound A 10 g/ha (Table 43)): 100%
SINAR % visual injury Obs ([3]; Compound A 10 g/ha (Table 44)): 100%
pest or weed control at […] ([3]; Mutarda arvensis, post-emergence, SINAR, Compound A 7.5 g/ha, read-out: % visual injury Obs): 90%
pest or weed control at 10 g/ha ([3]; Mutarda arvensis, post-emergence, SINAR, Compound A 10 g/ha, read-out: % visual injury Obs): 90%
pest or weed control at 15 g/ha ([3]; Mutarda arvensis, post-emergence, SINAR, Compound A 15 g/ha, read-out: % visual injury Obs): 100%
% visual injury Obs ([3]; SINAR, Compound A 10 g/ha): 90%
% visual injury, Obs ([3]; SINAR, Compound A 10 g/ha): 100% and 88%
visual injury, Obs ([3]; SINAR, Compound A 10 g/ha alone): 90%
visual injury, Obs ([3]; SINAR, Compound A 15 g/ha alone): 100%
% visual injury (Obs) ([3]; SINAR, alone, 10 g/ha): 90% and 88%
% visual injury Obs ([3]; SINAR, alone, 10 g/ha): 90%
% visual injury Obs ([3]; SINAR, alone, 15 g/ha): 100%
% visual injury, Obs ([3]; SINAR, applied alone, 10 g/ha): 90% and 88%
% visual injury, Obs ([3]; SINAR, applied alone, 15 g/ha): 100%
SASKR Obs (% visual injury) ([4]; Compound A 10 g/ha): 65% and 63%
SASKR % visual injury Obs ([4]; Compound A 10 g/ha (Table 42)): 65%
SASKR % visual injury Obs ([4]; Compound A 10 g/ha (Table 43)): 65%
SASKR % visual injury Obs ([4]; Compound A 10 g/ha (Table 44)): 65%
% visual injury, Obs ([4]; SASKR, Compound A 10 g/ha): 65%
visual injury, Obs ([4]; SASKR, Compound A 10 g/ha alone): 50%
visual injury, Obs ([4]; SASKR, Compound A 15 g/ha alone): 50%
% visual injury (Obs) ([4]; SASKR, alone, 10 g/ha): 63%
% visual injury Obs ([4]; SASKR, alone, 10 g/ha): 50%
% visual injury Obs ([4]; SASKR, alone, 15 g/ha): 50%
% visual injury, Obs ([4]; SASKR, applied alone, 10 g/ha): 50% and 63%
% visual injury, Obs ([4]; SASKR, applied alone, 15 g/ha): 50%
pest or weed control at […] ([4]; Salsola kali, post-emergence, SASKR, Compound A 7.5 g/ha, read-out: % visual injury Obs): 30%
pest or weed control at 10 g/ha ([4]; Salsola kali, post-emergence, SASKR, Compound A 10 g/ha, read-out: % visual injury Obs): 50%
pest or weed control at 15 g/ha ([4]; Salsola kali, post-emergence, SASKR, Compound A 15 g/ha, read-out: % visual injury Obs): 50%
% visual injury, Obs ([5]; CHEAL, Compound A 10 g/ha): 88% and 78%
% visual injury (Obs) ([5]; CHEAL, alone 10 g/ha): 90% and 78%
% visual injury, Obs ([5]; CHEAL, applied alone, 10 g/ha): 80%
CHEAL Obs (% visual injury) ([5]; Compound A 10 g/ha): 88% and 90%
CHEAL % visual injury Obs ([5]; Compound A 10 g/ha (Table 42)): 88%
CHEAL % visual injury Obs ([5]; Compound A 10 g/ha (Table 43)): 88%
CHEAL % visual injury Obs ([5]; Compound A 10 g/ha (Table 44)): 88%
% visual injury Obs ([6]; Compound A 10 g/ha): 75%
visual injury, Obs ([6]; Compound A 10 g/ha alone): 75%
visual injury, Obs ([6]; Compound A 15 g/ha alone): 80%
% visual injury Obs ([6]; alone, 10 g/ha): 75%
% visual injury Obs ([6]; alone, 15 g/ha): 80%
% visual injury, Obs ([6]; 10 g/ha): 75%
% visual injury, Obs ([6]; 15 g/ha): 80%
pest or weed control at […] ([6]; Veronica hederifolia, post-emergence, Compound A 7.5 g/ha, read-out: % visual injury Obs): 65%
pest or weed control at 10 g/ha ([6]; Veronica hederifolia, post-emergence, Compound A 10 g/ha, read-out: % visual injury Obs): 75%
pest or weed control at 15 g/ha ([6]; Veronica hederifolia, post-emergence, Compound A 15 g/ha, read-out: % visual injury Obs): 80%
% visual injury Obs ([7]; Compound A 10 g/ha): 85%
visual injury, Obs ([7]; Compound A 10 g/ha alone): 85%
% visual injury Obs ([7]; Compound A 15 g/ha): 95%
visual injury, Obs ([7]; Compound A 15 g/ha alone): 95%
% visual injury Obs ([7]; alone, 10 g/ha): 85%
% visual injury Obs ([7]; alone, 15 g/ha): 95%
% visual injury, Obs ([7]; 10 g/ha): 85%
% visual injury, Obs ([7]; 15 g/ha): 95%
pest or weed control at […] ([7]; Veronica persica, post-emergence, VERVE, Compound A 7.5 g/ha, read-out: % visual injury Obs): 80%
pest or weed control at 10 g/ha ([7]; Veronica persica, post-emergence, VERVE, Compound A 10 g/ha, read-out: % visual injury Obs): 85%
pest or weed control at 15 g/ha ([7]; Veronica persica, post-emergence, VERVE, Compound A 15 g/ha, read-out: % visual injury Obs): 95%
visual injury, Obs ([8]; Compound A 10 g/ha alone): 100%
visual injury, Obs ([8]; Compound A 15 g/ha alone): 100%
% visual injury Obs ([8]; 10 g/ha): 100%
% visual injury Obs ([8]; 15 g/ha): 100%
% visual injury, Obs ([8]; 10 g/ha): 100%
% visual injury, Obs ([8]; 15 g/ha): 100%
pest or weed control at […] ([8]; Anthemis arvensis, post-emergence, Compound A 7.5 g/ha, read-out: % visual injury Obs): 95%
pest or weed control at 10 g/ha ([8]; Anthemis arvensis, post-emergence, Compound A 10 g/ha, read-out: % visual injury Obs): 100%
pest or weed control at 15 g/ha ([8]; Anthemis arvensis, post-emergence, Compound A 15 g/ha, read-out: % visual injury Obs): 100%
% visual injury Obs ([9]; Compound A 10 g/ha): 0%
visual injury, Obs ([9]; Compound A 10 g/ha alone): 0%
% visual injury Obs ([9]; Compound A 15 g/ha): 0%
visual injury, Obs ([9]; Compound A 15 g/ha alone): 0%
% visual injury Obs ([9]; alone, 10 g/ha): 0%
% visual injury Obs ([9]; alone, 15 g/ha): 0%
% visual injury, Obs ([9]; 10 g/ha): 0%
% visual injury, Obs ([9]; 15 g/ha): 0%
% visual injury (crop phytotoxicity) ([9]; c4-5 Fluroxypyr-MHE 100/140, c6-8, c9-11 A 7.5/10/15 + Fluroxypyr-MHE 100, 140 g/ha): 0%
% visual injury (crop phytotoxicity) ([9]; c4-6 Clopyralid 30/60/120, c7-9, c10-12, c13-15 A 7.5/10/15 + Clopyralid 30, 60, 120 g/ha): 0%
% visual injury (crop phytotoxicity) ([9]; c4 Aminopyralid 5, c5-7 A 7.5/10/15 + Aminopyralid 5 g/ha): 0%
% visual injury (crop phytotoxicity) ([9]; c4 Halauxifen-methyl 6, c5-7 A 7.5/10/15 + Halauxifen-methyl 6 g/ha): 0%
% visual injury, Obs ([10]; BRSNN, Compound A 10 g/ha): 55%
% visual injury (Obs) ([10]; BRSNN, alone 10 g/ha): 73% and 70%
BRSNN Obs (% visual injury) ([10]; Compound A 10 g/ha): 55% and 83% and 70%
BRSNN % visual injury Obs ([10]; Compound A 10 g/ha (Table 42)): 55%
BRSNN % visual injury Obs ([10]; Compound A 10 g/ha (Table 43)): 55%
BRSNN % visual injury Obs ([10]; Compound A 10 g/ha (Table 44)): 55%
RUMOB Obs (% visual injury) [11]: 10%
RUMOB Obs (% visual injury) ([11]; without safener): 35%
% visual injury, Obs ([11]; RUMOB): 35%
HELAN Obs (% visual injury) ([12]; without safener): 100%
% visual injury, Obs ([12]; HELAN): 100%
ECHCG Obs (% visual injury) [13]: 78%
ECHCG Obs (% visual injury) ([13]; without safener): 58%
% visual injury, Obs ([13]; ECHCG): 58%
DIGSA Obs (% visual injury) [14]: 25%
DIGSA Obs (% visual injury) ([14]; without safener): 8%
% visual injury, Obs ([14]; DIGSA): 8%
SETFA Obs (% visual injury) [15]: 70%
SETFA Obs (% visual injury) ([15]; without safener): 0%
% visual injury, Obs ([15]; SETFA): 0%
ORYSA Obs (% visual injury) [16]: 10%
